Where only a bound is given, the exact number is not on record here.

T1 sequence (P08473 whole entry): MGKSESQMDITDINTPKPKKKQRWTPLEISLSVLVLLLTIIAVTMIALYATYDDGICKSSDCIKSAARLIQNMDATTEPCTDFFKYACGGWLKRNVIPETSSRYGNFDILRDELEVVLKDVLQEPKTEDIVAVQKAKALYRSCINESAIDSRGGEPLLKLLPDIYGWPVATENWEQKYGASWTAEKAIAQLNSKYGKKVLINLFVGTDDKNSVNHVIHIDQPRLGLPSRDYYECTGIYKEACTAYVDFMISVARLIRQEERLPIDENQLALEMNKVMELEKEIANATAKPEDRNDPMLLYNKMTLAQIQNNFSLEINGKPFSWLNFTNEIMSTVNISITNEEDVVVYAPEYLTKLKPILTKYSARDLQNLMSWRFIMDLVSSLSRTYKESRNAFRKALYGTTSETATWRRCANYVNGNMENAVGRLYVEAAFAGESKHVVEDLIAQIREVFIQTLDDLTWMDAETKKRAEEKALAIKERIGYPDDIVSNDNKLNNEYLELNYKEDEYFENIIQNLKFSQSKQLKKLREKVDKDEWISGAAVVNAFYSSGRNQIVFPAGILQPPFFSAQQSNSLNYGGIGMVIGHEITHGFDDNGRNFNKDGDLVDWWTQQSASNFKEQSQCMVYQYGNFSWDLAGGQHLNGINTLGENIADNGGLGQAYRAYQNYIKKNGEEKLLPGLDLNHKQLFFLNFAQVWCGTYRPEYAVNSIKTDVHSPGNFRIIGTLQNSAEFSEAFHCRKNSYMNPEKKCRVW

This assay concerns the target T1, human NEP (Homo sapiens, UniProt P08473).
T1 construct: purchased R&D Systems, Minneapolis, Minn; 1182-ZN
Briefly: In vitro enzyme inhibition assay at human NEP (Assay 1). As to conditions: recombinant enzyme, fluorogenic peptide substrate, 37° C. In kind it is biochemical. As to the method:
In Vitro Assays for the Quantitation of Inhibitor Potencies (IC50) at Human and Rat NEP, and Human ACE
The inhibitory activities of compounds at human and rat neprilysin (EC 3.4.24.11; NEP) and human angiotensin converting enzyme (ACE) were determined using in vitro assays as described below.
Recombinant human NEP and recombinant human ACE were obtained commercially (R&D Systems, Minneapolis, Minn., catalog numbers 1182-ZN and 929-ZN, respectively). The fluorogenic peptide substrate Mca-D-Arg-Arg-Leu-Dap-(Dnp)-OH (Medeiros et al. (1997) Braz. J. Med. Biol. Res. 30:1157-62; Anaspec, San Jose, Calif.) and Abz-Phe-Arg-Lys(Dnp)-Pro-OH (Araujo et al. (2000) Biochemistry 39:8519-8525; Bachem, Torrance, Calif.) were used in the NEP and ACE assays respectively.
The assays were performed in 384-well white opaque plates at 37° C. using the fluorogenic peptide substrates at a concentration of 10 μM in Assay Buffer (NEP: 50 mM HEPES, pH 7.5, 100 mM NaCl, 0.01% polyethylene glycol sorbitan monolaurate (Tween-20), 10 μM ZnSO4; ACE: 50 mM HEPES, pH 7.5, 100 mM NaCl, 0.01% Tween-20, 1 μM ZnSO4).
Test compounds were assayed over the range of concentrations from […] to 20 μM. Test compounds were added to the enzymes and incubated for 30 minute at 37° C. prior to initiating the reaction by the addition of substrate. Reactions were terminated after 20 minutes of incubation at 37° C. by the addition of glacial acetic acid to a final concentration of 3.6% (v/v).
Plates were read on a fluorometer with excitation and emission wavelengths set to 320 nm and 405 nm, respectively. Inhibition constants were obtained by nonlinear regression of the data using the equation (GraphPad Software, Inc., San Diego, Calif.): v=v0/[1+(I/K′)] where v is the reaction rate, v0 is the uninhibited reaction rate, I is the inhibitor concentration and K′ is the apparent inhibition constant.
Compounds of the invention were tested in this assay and found to have pKi values at human NEP as follows.
Consider `COc1ccccc1-c1cc(C(=O)NN(Cc2ccc(-c3cccc(Cl)c3)cc2)C[C@@H](O)C(=O)O)on1` [Example 4-30, (R)-3-{N-(3′-Chlorobiphenyl-4-ylmethyl)-N′-[3-(2-methoxy-phenyl)-isoxazole-5-carbonyl]-hydrazino}-2-hydroxy-propionic acid], for which the Ki (in general, the dissociation constant of the complex between target and ligand, obtained from inhibition or displacement) is 1.26 to 10 nM.
Regarding `O=C(NN(Cc1ccc(-c2cc(F)cc(Cl)c2)cc1)C[C@H](O)C(=O)O)c1cc(O)no1` [Example 8-24, (S)-3-[N-(5′-Chloro-3′-fluoro-biphenyl-4-ylmethyl)-N′-(3-hydroxy-isoxazole-5-carbonyl)-hydrazino]-2-hydroxy-propionic acid], the Ki was 1.26 to 10 nM.
Turning to `Cc1ccc(Cl)cc1-c1ccc(CN(C[C@@H](O)C(=O)O)NC(=O)c2nnn[nH]2)cc1` [Example 8-59, (R)-3-[N-(5′-Chloro-2′-methyl-biphenyl-4-ylmethyl)-N′-(1H-tetrazole-5-carbonyl)-hydrazino]-2-hydroxy-propionic acid], the Ki was at most 1 nM.
Regarding `O=C(NN(Cc1ccc(-c2cccc(Cl)c2)cc1F)C[C@@H](O)C(=O)O)c1cn(O)nn1` [Example 10-9, (R)-3-[N-(3′-Chloro-3-fluoro-biphenyl-4-ylmethyl)-N′-(1-hydroxy-1H-[1,2,3]triazole-4-carbonyl)-hydrazino]-2-hydroxy-propionic acid], the Ki was at most 1 nM.
As to `O=C(NN(Cc1ccc(-c2cccc(Cl)c2)cc1)C[C@@H](O)C(=O)O)c1cc(C(=O)N2CC[C@@H](O)C2)n[nH]1` [Example 4-14, (R)-3-{N-(3′-Chlorobiphenyl-4-ylmethyl)-N′-[5-((R)-3-hydroxy-pyrrolidine-1-carbonyl)-2H-pyrazole-3-carbonyl]-hydrazino}-2-hydroxy-propionic acid], the Ki is at most 1 nM.
With `O=C(NN(Cc1ccc(-c2cc(Cl)cc(Cl)c2)cc1)C[C@@H](O)C(=O)O)c1cc(O)no1` [Example 8-25, (R)-3-[N-(3′,5′-Dichloro-biphenyl-4-ylmethyl)-N′-(3-hydroxy-isoxazole-5-carbonyl)-hydrazino]-2-hydroxy-propionic acid], the Ki was at most 1 nM.
With `O=C(NN(Cc1ccc(-c2cc(O)cc(Cl)c2)cc1)C[C@H](O)C(=O)O)c1cc(O)no1` [Example 8-27, (S)-3-[N-(5′-Chloro-3′-hydroxy-biphenyl-4-ylmethyl)-N′-(3-hydroxy-isoxazole-5-carbonyl)-hydrazino]-2-hydroxy-propionic acid], the Ki is at most 1 nM.
Turning to `O=C(NN(Cc1ccc(-c2ccccc2)cc1)C[C@@H](O)C(=O)O)c1cc(C(=O)N2CC[C@@H](O)C2)n[nH]1` [Example 2-11, (R)-3-{N-Biphenyl-4-ylmethyl-N′-[5-((R)-3-hydroxy-pyrrolidine-1-carbonyl)-2H-pyrazole-3-carbonyl]hydrazino}-2-hydroxypropionic acid], the Ki is 1.26 to 10 nM.
As for `O=C(NN(Cc1ccc(-c2cccc(Cl)c2)cc1)C[C@@H](O)C(=O)O)c1cc(-c2ccccc2Cl)no1` [Example 4-29, (R)-3-{N-(3′-Chlorobiphenyl-4-ylmethyl)-N′-[3-(2-chlorophenyl)-isoxazole-5-carbonyl]-hydrazino}-2-hydroxy-propionic acid], the Ki is at most 1 nM.
With `CN(C)C(=O)c1cc(C(=O)NN(Cc2ccc(-c3ccccc3)cc2)C[C@@H](O)C(=O)O)[nH]n1` [Example 2-6, (R)-3-[N-Biphenyl-4-ylmethyl-N′-(5-dimethylcarbamoyl-2H-pyrazole-3-carbonyl)-hydrazino]-2-hydroxypropionic acid], the Ki is 1.26 to 10 nM.
For the compound `O=C(NN(Cc1ccc(-c2cccc(Cl)c2)cc1)C[C@@H](O)C(=O)O)c1cc(C(=O)N2CCCC2)n[nH]1` [Example 4-11, (R)-3-{N-(3′-Chlorobiphenyl-4-ylmethyl)-N′-[5-(pyrrolidine-1-carbonyl)-2H-pyrazole-3-carbonyl]-hydrazino}-2-hydroxy-propionic acid], the Ki was at most 1 nM.
For the compound `O=C(NN(Cc1ccc(-c2ccccc2)cc1)C[C@@H](O)C(=O)O)c1cc(C(=O)N2CC=CC2)n[nH]1` [Example 2-13, (R)-3-{N-Biphenyl-4-ylmethyl-N′-[5-(2,5-dihydro-pyrrole-1-carbonyl)-2H-pyrazole-3-carbonyl]hydrazino}-2-hydroxypropionic acid], the Ki was 1.26 to 10 nM.
Take `O=C(NN(Cc1ccc(-c2cc(Cl)ccc2F)cc1)C[C@@H](O)C(=O)O)c1cc(Cl)no1` [Example 8-29, (R)-3-[N-(5′-Chloro-2′-fluoro-biphenyl-4-ylmethyl)-N′-(3-chloro-isoxazole-5-carbonyl)-hydrazino]-2-hydroxy-propionic acid]: the Ki is 1.26 to 10 nM.
The result for `COc1ccccc1-c1cc(C(=O)NN(Cc2ccc(-c3cc(Cl)ccc3F)cc2)C[C@@H](O)C(=O)O)[nH]n1` [Example 8-39, (R)-3-{N-(5′-Chloro-2′-fluoro-biphenyl-4-ylmethyl)-N′-[5-(2-methoxy-phenyl)-2H-pyrazole-3-carbonyl]-hydrazino}-2-hydroxy-propionic acid] reads at most 1 nM; that for `O=C(NN(Cc1ccc(-c2cccc(Cl)c2)cc1)C[C@@H](O)C(=O)O)c1cc(-c2ccccc2Cl)n[nH]1` [Example 4-15, (R)-3-{N-(3′-Chlorobiphenyl-4-ylmethyl)-N′-[5-(2-chlorophenyl)-2H-pyrazole-3-carbonyl]-hydrazino}-2-hydroxy-propionic acid], at most 1 nM.
Take `O=C(NN(Cc1ccc(-c2ccccc2)cc1)C[C@@H](O)C(=O)O)c1cc(-c2ccccc2)n[nH]1` [Example 2-16, (R)-3-[N-Biphenyl-4-ylmethyl-N′-(5-phenyl-2H-pyrazole-3-carbonyl)-hydrazino]-2-hydroxypropionic acid]: the Ki is 12.6 to 100 nM.
For the compound `O=C(NN(Cc1ccc(-c2ccccc2)cc1)C[C@H](O)C(=O)O)c1cnc2[nH]nnc2c1` [Example 2-22, (S)-3-[N-Biphenyl-4-ylmethyl-N′-(3H-[1,2,3]triazolo[4,5-b]pyridine-6-carbonyl)hydrazino]-2-hydroxypropionic acid], the Ki is 126 to 1000 nM.
The figure for `O=C(NN(Cc1ccc(-c2ccccc2)cc1)C[C@@H](O)C(=O)O)c1cc(C(=O)N2CCC2)n[nH]1` [Example 2-8, (R)-3-{N′-[5-(Azetidine-1-carbonyl)-2H-pyrazole-3-carbonyl]-N-biphenyl-4-ylmethylhydrazino}-2-hydroxypropionic acid] is 1.26 to 10 nM.
Turning to `O=C(O)Cn1nc(C(=O)NN(Cc2ccc(-c3cc(Cl)ccc3F)cc2)C[C@@H](O)C(=O)O)cc1C1CC1` [Example 8-53, (R)-3-[N′-(1-Carboxymethyl-5-cyclopropyl-1H-pyrazole-3-carbonyl)-N-(5′-chloro-2′-fluoro-biphenyl-4-ylmethyl)-hydrazino]-2-hydroxy-propionic acid], the Ki was 1.26 to 10 nM.
Turning to `Cc1cc(Cl)cc(-c2ccc(CN(C[C@H](O)C(=O)O)NC(=O)c3cc(O)no3)cc2)c1F` [Example 8-23, (S)-3-[N-(5′-Chloro-2′-fluoro-3′-methyl-biphenyl-4-ylmethyl)-N′-(3-hydroxy-isoxazole-5-carbonyl)-hydrazino]-2-hydroxy-propionic acid], the Ki is 1.26 to 10 nM.
Turning to `O=C(NN(Cc1ccc(-c2cccc(Cl)c2)cc1)C[C@@H](O)C(=O)O)c1cc(-c2cccnc2)[nH]n1` [Example 4-9, (R)-3-[N-(3′-Chlorobiphenyl-4-ylmethyl)-N′-(5-pyridin-3-yl-1H-pyrazole-3-carbonyl)-hydrazino]-2-hydroxy-propionic acid], the Ki was 1.26 to 10 nM.
For `CC(C)(C)c1cc(C(=O)NN(Cc2ccc(-c3cc(Cl)ccc3F)cc2)C[C@@H](O)C(=O)O)on1` [Example 8-33, (R)-3-[N′-(3-tert-Butyl-isoxazole-5-carbonyl)-N-(5′-chloro-2′-fluoro-biphenyl-4-ylmethyl)-hydrazino]-2-hydroxy-propionic acid], the Ki is 1.26 to 10 nM.
On to `CN(CC1CC1)C(=O)c1cc(C(=O)NN(Cc2ccc(-c3cccc(Cl)c3)cc2)C[C@@H](O)C(=O)O)[nH]n1` [Example 4-17, (R)-3-{N-(3′-Chlorobiphenyl-4-ylmethyl)-N′-[5-(cyclopropylmethyl-methyl-carbamoyl)-2H-pyrazole-3-carbonyl]-hydrazino}-2-hydroxy-propionic acid], for which the Ki is at most 1 nM.
Turning to `O=C(NN(Cc1ccc(-c2cccc(F)c2)cc1)C[C@@H](O)C(=O)O)c1cc(O)no1` [Example 5-1, (R)-3-[N-(3′-Fluoro-biphenyl-4-ylmethyl)-N′-(3-hydroxy-isoxazole-5-carbonyl)-hydrazino]-2-hydroxy-propionic acid], the Ki was 1.26 to 10 nM.
Consider `O=C(NN(Cc1ccc(-c2cccc(Cl)c2)cc1)C[C@@H](O)C(=O)O)c1nnn[nH]1` [Example 4-5, (R)-3-[N-(3′-Chlorobiphenyl-4-ylmethyl)-N′-(1H-tetrazole-5-carbonyl)-hydrazino]-2-hydroxy-propionic acid], for which the Ki is at most 1 nM.

Source of the values: patent publication US9873696B2, “Neprilysin inhibitors” (THERAVANCE BIOPHARMA R&D IP, LLC, priority 2010, dated 2018).
